The subject of the experiment is HT-29 (human) cancer cell line. The experiment in a line: Cell proliferation inhibitory effect (MTT assay) on cultured cancer cell line HT-29. Format: cell-based. Particulars: HT-29 cells; for IC50: incubation at 37° C. for three days, MTT assay, read-out: CPI50 (concentration required for attaining 50% CPI, percent cell proliferation inhibition). On the procedure: A cultured cancer cell line (HT-29 (human)) was inoculated into a 96-well plate (1×10^4 cells/100 μL/well), and subsequently the GlcNAc-cholestanol-compound-containing liposomal formulation or cyclodextrin inclusion complexation prepared in Example 1 was added to the 96-well plate, followed by incubation at 37° C. for three days. Thereafter, the MTT assay was performed, and the number of cells was determined. Percent cell proliferation inhibition was obtained by use of the below-described formula.
Percent cell proliferation inhibition (percent CPI) (%)=(1 −OD of treated cells/OD of non-treated cells)×100 [E1]
OD of treated cells and OD of non-treated cells were measured at 450 nm and 650 nm, respectively (according to the MTT assay).

The mark [1] stands for this setting: Cyclodextrin inclusion complexation.

Results on four molecules are retold here after patent publication US7968116B2, “Antitumor agent” (Otsuka Pharmaceutical Co., Ltd., priority 2005, dated 2011).

Read-outs that look alike come from different tables or passages of the source.

On to `CC(C)CCC[C@@H](C)[C@H]1CC[C@H]2[C@@H]3CCC4CC(OC5O[C@H](CO)[C@H](O)[C@H](O)[C@H]5O)CC[C@]4(C)[C@H]3CC[C@]12C` (stereo partly drawn) [GalChol, Galp-cholestanol], for which the IC50 under setting [1] amounted to 37.4 µM and the IC50 (Liposomal formulation) was 12.7 µM.

Take `CC(=O)N[C@H]1[C@H](O[C@H]2[C@@H](O)[C@@H](CO)O[C@@H](O[C@H]3CC[C@@]4(C)[C@@H](CC[C@@H]5[C@@H]4CC[C@]4(C)[C@@H]([C@H](C)CCCC(C)C)CC[C@@H]54)C3)[C@@H]2O)O[C@H](CO)[C@@H](O)[C@@H]1O` [GlcNAcGalChol, GlcNAcβ1,3Galβ-cholestanol]: the IC50 came to 15.9 µM under setting [1] and 10.2 µM (Liposomal formulation).

For `CC(=O)N[C@H]1[C@H](O[C@H]2CC[C@@]3(C)[C@@H](CC[C@@H]4[C@@H]3CC[C@]3(C)[C@@H]([C@H](C)CCCC(C)C)CC[C@@H]43)C2)O[C@H](CO)[C@@H](O)[C@@H]1O` [GlcNacChol, 5-α-cholestan-3β-yl-2-acetamido-2-deoxy-β-D-glucopyranoside], the IC50 under setting [1] was found to be 8.8 µM and the IC50 (Liposomal formulation) came out at 10.4 µM. Moreover, the “cell proliferation inhibitory effect (in words)” value (liposomal formulation or cyclodextrin inclusion complexation, three days) is listed as “strong cell proliferation inhibitory effect”.

`CC(C)CCC[C@@H](C)[C@H]1CC[C@H]2[C@@H]3CC[C@H]4C[C@@H](O)CC[C@]4(C)[C@H]3CC[C@]12C` [Chol, cholestanol]: the IC50 is over 1000 µM under setting [1] and 354 µM (Liposomal formulation).
